These are literature values, as cited in US7605257B2, “Processes for preparing water-soluble polyethylene glycol conjugates of macrolide immunosuppressants” (Wyeth, priority 2006, dated 2009).

SMILES strings stand for the structures.

This data set deals with various solid tumors. As to conditions: typical IC50, inhibitor of tumor growth; read-out: IC50 against various solid tumors.

What is called IC50 is the midpoint of a concentration-inhibition curve. For the compound `CO[C@H]1C[C@@H]2CC[C@@H](C)[C@@](O)(O2)C(=O)C(=O)N2CCCC[C@H]2C(=O)O[C@H]([C@H](C)C[C@@H]2CC[C@@H](O)[C@H](OC)C2)CC(=O)[C@H](C)/C=C(\C)[C@@H](O)[C@@H](OC)C(=O)[C@H](C)C[C@H](C)/C=C/C=C/C=C/1C` [Rapamycin, rapamycin], the IC50 was less than 50 nM.
